Legend:
[1] = molecular target: mannose receptor protein CD206 (Homo sapiens, UniProt P22897)
[2] = system: Kaposi's sarcoma lesion(s); test: SPECT and SPECT/CT imaging of primary cutaneous Kaposi's sarcoma; type: in vivo, human; details: 50 μg tilmanocept, 2.0 mCi 99mTc, subcutaneous; example in present tense
Protocol: The following illustrates yet another example of the evaluation of Primary Cutaneous Kaposi's Sarcoma (KS) by SPECT and SPECT/CT Imaging using Lymphoseek® (also known as technetium 99mTc-tilmanocept injection) a radiopharmaceutical that binds to mannose binding receptors (CD206) that reside on the surfaces of dendritic cells and macrophages.
The total volume of 99mTc-tilmanocept injection is 0.3 to 0.5 mL.
The patient has a marker lesion (>1 cm in diameter) with a confirmed diagnosis of KS (CD206-expressing cutaneous KS) via punch biopsy. The location of the marker KS lesion is on the extremities: from the shoulder to the metacarpal region or from the groin to the metatarsal region.
The dose is administered by a syringe with a ⅝ inch, 25- or 27-gauge, fixed needle, or other syringe/needle combinations that are acceptable for subcutaneous injections. The injection is made 1.5±0.25 cm distal from the marker lesion, 4-8 cm distal to the marker lesion, or 4-8 cm proximal to the marker lesion.
The patient undergoes a regional dynamic SPECT scan immediately post-injection for a duration of 30 minutes. After the initial scan, the patient undergoes whole body SPECT/CT imaging at 1 hour and whole body SPECT imaging at 4-6 hours post injection. The patient is permitted to leave the imaging center after the 4-6 hour SPECT scan. […]

[3] = staging breast cancer, melanoma or SCC; cited from earlier work

Chain of mannose receptor protein CD206 (P22897 19-1456): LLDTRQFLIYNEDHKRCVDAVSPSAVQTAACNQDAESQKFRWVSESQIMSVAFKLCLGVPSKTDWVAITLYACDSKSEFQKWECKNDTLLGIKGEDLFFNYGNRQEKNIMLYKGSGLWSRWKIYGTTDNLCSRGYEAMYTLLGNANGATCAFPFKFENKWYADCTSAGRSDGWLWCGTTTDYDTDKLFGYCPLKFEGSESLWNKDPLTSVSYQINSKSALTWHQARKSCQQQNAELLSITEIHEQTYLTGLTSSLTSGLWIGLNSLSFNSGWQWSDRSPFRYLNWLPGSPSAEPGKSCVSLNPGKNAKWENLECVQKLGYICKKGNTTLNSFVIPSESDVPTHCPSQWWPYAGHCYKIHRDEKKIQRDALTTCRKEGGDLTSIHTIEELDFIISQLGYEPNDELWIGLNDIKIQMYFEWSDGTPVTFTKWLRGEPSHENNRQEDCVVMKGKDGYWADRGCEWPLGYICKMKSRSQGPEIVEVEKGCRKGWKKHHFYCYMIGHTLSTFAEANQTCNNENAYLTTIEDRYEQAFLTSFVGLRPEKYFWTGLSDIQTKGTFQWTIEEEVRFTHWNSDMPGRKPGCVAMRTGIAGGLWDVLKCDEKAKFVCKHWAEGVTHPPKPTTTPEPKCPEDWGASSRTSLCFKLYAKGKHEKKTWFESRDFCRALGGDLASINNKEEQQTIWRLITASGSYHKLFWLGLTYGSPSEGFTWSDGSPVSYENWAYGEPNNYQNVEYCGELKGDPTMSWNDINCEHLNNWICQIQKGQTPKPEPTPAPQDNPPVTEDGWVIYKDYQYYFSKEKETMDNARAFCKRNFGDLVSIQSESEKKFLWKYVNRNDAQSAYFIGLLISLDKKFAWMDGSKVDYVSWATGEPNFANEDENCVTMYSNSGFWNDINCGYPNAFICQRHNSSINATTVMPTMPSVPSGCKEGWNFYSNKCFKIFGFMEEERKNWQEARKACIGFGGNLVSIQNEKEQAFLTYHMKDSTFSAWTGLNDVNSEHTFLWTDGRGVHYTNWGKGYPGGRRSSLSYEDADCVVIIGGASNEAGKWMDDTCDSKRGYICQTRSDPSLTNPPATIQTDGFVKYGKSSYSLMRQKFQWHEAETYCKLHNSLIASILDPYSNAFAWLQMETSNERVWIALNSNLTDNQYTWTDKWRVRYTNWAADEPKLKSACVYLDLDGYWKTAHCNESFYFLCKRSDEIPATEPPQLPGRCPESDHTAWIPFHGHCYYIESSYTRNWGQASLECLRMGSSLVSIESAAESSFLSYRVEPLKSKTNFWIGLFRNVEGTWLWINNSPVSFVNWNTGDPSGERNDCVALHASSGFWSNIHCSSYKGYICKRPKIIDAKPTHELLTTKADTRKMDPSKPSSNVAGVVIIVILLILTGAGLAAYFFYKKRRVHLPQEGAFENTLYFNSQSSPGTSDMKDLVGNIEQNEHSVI

Substance	intracellular fate after uptake into macrophage [1]	receptor specificity ([1]; administered to mammals or contacted with CD206 expressing cells ex vivo)	detection of KS lesions by SPECT and SPECT/CT [2]	injection site clearance [3]	uptake by distal or second-echelon lymph nodes [3]	uptake by the sentinel lymph node(s) [3]
dextran 3-[(2-aminoethyl)thio]propyl 17-carboxy-10,13,16-tris (carboxymethyl)-8-oxo-4-thia-7,10,13,16-tetraazaheptadec-1-yl 3-[[2-[[1-imino-2-(D-mannopyranosylthio) ethyl]aminolethyllthiolpropyl ether complexes [tilmanocept]	persists in stable non-digesting vesicles	bind exclusively to the mannose receptor protein CD206				
technetium Tc 99m, dextran 3-[(2-aminoethyl)thio]propyl 17-carboxy-10,13,16-tris(carboxymethyl)-8-oxo-4-thia-7,10,13,16-tetraaz aheptadec-1-yl 3-[[2-[[1-imino-2-(D-mannopyranosylthio) ethyl]amino]ethyl]thio]propyl ether complexes [Lymphoseek]			aids in the detection of Kaposi's sarcoma lesion(s)	rapid clearance from an injection site	low uptake by distal or second-echelon lymph nodes	rapid and sustained uptake by the sentinel lymph node(s)

— patent US20220016272A1, “COMPOSITIONS, METHODS AND KITS FOR DIAGNOSING AND TREATING CD206 EXPRESSING CELL-RELATED DISORDERS” (Cardinal Health 414, LLC, priority 2013, published 2022)
